Non-standard residues stand in square brackets, D forms with d. Residues, ends and D or L forms follow the SMILES beside them. Ac5c = NC1(C(=O)O)CCCC1; Deg = CCC(N)(CC)C(=O)O
Tests used:
Test in all cases: MTT cytotoxicity assay, 48 hours (Example 14)
PTC (colon) = format: cell-based, human
Procedure: (§1) The cytotoxic effect of peptide sequences SEQ ID NO: 9, SEQ ID NO: 10, SEQ ID NO: 11 and SEQ ID NO: 12, were studied by MTT assay which is based on the principle of uptake of MTT[3-[4,5-dimethylthiazol-2-yl]-2,5-diphenyl tetrazolium bromide], a tetrazolium salt by the metabolically active cells where it is metabolized by active mitochondria into a blue colored formazan product which can be read spectrophotometrically. Tumor cells KB (oral squamous). HuTu80 (Stomach), PTC and SW620 (colon), U87MG (Glioblastoma), HBL 100. (Breast), HeP2 (laryngeal) and L132 (Lung) were incubated with the peptide analogs for 48 hours at 37° C. in a 96-well culture plate, followed by the addition of 100 μl MTT and further incubation of 1 hour. The formazon crystals formed inside the cells were dissolved with a detergent comprising 10% Sodium dodecyl sulfate and 0.01 N HCl and optical density read on a multiscan ELISA reader. The optical density was directly proportional to the number of proliferating and metabolically active cells.

HBL 100 (Breast) = format: cell-based, human
Procedure: as §1

SW620 (colon) = format: cell-based, human
Procedure: as §1

HuTu80 (Stomach) = format: cell-based, human
Procedure: as §1

KB (oral squamous) = format: cell-based, human
Procedure: as §1

U87MG (Glioblastoma) = format: cell-based
Procedure: as §1

HeP2 (laryngeal) = format: cell-based
Procedure: as §1

L132 (Lung) = format: cell-based
Procedure: as §1

CCC(CC)(NC(=O)[C@H](Cc1c[nH]c2ccccc12)NC(=O)[C@H](CCC(N)=O)NC(=O)[C@H](N)Cc1ccccc1)C(=O)N[C@H](C(=O)NCC(=O)N[C@@H](Cc1c[nH]cn1)C(=O)N[C@@H](CC(C)C)C(N)=O)C(C)C [SEQ ID: 9, D-Phe-Gln-Trp-Deg-Val-Gly-His-Leu-NH2] (H-[dF]QW[Deg]VGHL-NH2; N-terminus assumed)
Percentage cytotoxicity (PTC (colon); 10 pM): 22.4 ± 2.2%
Percentage cytotoxicity (PTC (colon); 100 pM): 24.5 ± 3.9%
Percentage cytotoxicity (PTC (colon); 1 nM): 25.6 ± 5.1%
Percentage cytotoxicity (PTC (colon); 10 nM): 26.8 ± 3.8%
Percentage cytotoxicity (PTC (colon); 100 nM): 19.5 ± 4.1%
Percentage cytotoxicity (PTC (colon); 1 μM): 10.3 ± 0.9%
Percentage cytotoxicity (HBL 100 (Breast); HBL100, 10 pM): 17.2 ± 0.1%
Percentage cytotoxicity (HBL 100 (Breast); HBL100, 100 pM): 28.6 ± 2.2%
Percentage cytotoxicity (HBL 100 (Breast); HBL100, 1 nM): 34.1 ± 1.8%
Percentage cytotoxicity (HBL 100 (Breast); HBL100, 10 nM): 28.1 ± 0.6%
Percentage cytotoxicity (HBL 100 (Breast); HBL100, 100 nM): 22.4 ± 1.7%
Percentage cytotoxicity (HBL 100 (Breast); HBL100, 1 μM): 17.2 ± 0.4%
Percentage cytotoxicity (SW620 (colon); SW620, 10 pM): 15.1 ± 0.3%
Percentage cytotoxicity (SW620 (colon); SW620, 100 pM): 28.9 ± 0.2%
Percentage cytotoxicity (SW620 (colon); SW620, 1 nM): 30.8 ± 0.6%
Percentage cytotoxicity (SW620 (colon); SW620, 10 nM): 33.2 ± 2.9%
Percentage cytotoxicity (SW620 (colon); SW620, 100 nM): 25.8 ± 2.8%
Percentage cytotoxicity (SW620 (colon); SW620, 1 μM): 21.6 ± 2.1%
Percentage cytotoxicity (HuTu80 (Stomach); HuTu80, 10 pM): 19.5 ± 0.4%
Percentage cytotoxicity (HuTu80 (Stomach); HuTu80, 100 pM): 23.8 ± 2.8%
Percentage cytotoxicity (HuTu80 (Stomach); HuTu80, 1 nM): 28.0 ± 1.8%
Percentage cytotoxicity (HuTu80 (Stomach); HuTu80, 10 nM): 23.5 ± 2.9%
Percentage cytotoxicity (HuTu80 (Stomach); HuTu80, 100 nM): 13.5 ± 2.1%
Percentage cytotoxicity (HuTu80 (Stomach); HuTu80, 1 μM): 14.2 ± 0.6%
Percentage cytotoxicity (KB (oral squamous); 10 pM): 20.6 ± 4.1%
Percentage cytotoxicity (KB (oral squamous); 100 pM): 26.9 ± 2.9%
Percentage cytotoxicity (KB (oral squamous); 1 nM): 32.6 ± 3.7%
Percentage cytotoxicity (KB (oral squamous); 10 nM): 23.0 ± 2.1%
Percentage cytotoxicity (KB (oral squamous); 100 nM): 20.8 ± 1.7%
Percentage cytotoxicity (KB (oral squamous); 1 μM): 10.4 ± 1.6%
Percentage cytotoxicity (U87MG (Glioblastoma); 10 pM): 0.0 ± 0.0%
Percentage cytotoxicity (U87MG (Glioblastoma); 100 pM): 11.9 ± 4.1%
Percentage cytotoxicity (U87MG (Glioblastoma); 1 nM): 21.8 ± 0.1%
Percentage cytotoxicity (U87MG (Glioblastoma); 10 nM): 20.0 ± 0.0%
Percentage cytotoxicity (U87MG (Glioblastoma); 100 nM): 21.4 ± 0.1%
Percentage cytotoxicity (U87MG (Glioblastoma); 1 μM): 10.0 ± 0.0%
Percentage cytotoxicity (HeP2 (laryngeal); HeP2, 10 pM): 0.0 ± 0.0%
Percentage cytotoxicity (HeP2 (laryngeal); HeP2, 100 pM): 14.6 ± 0.6%
Percentage cytotoxicity (HeP2 (laryngeal); HeP2, 1 nM): 21.3 ± 2.2%
Percentage cytotoxicity (HeP2 (laryngeal); HeP2, 10 nM): 28.5 ± 3.1%
Percentage cytotoxicity (HeP2 (laryngeal); HeP2, 100 nM): 17.8 ± 0.3%
Percentage cytotoxicity (HeP2 (laryngeal); HeP2, 1 μM): 21.6 ± 1.8%
Percentage cytotoxicity (L132 (Lung); L132, 10 pM): 0.0 ± 0.0%
Percentage cytotoxicity (L132 (Lung); L132, 100 pM): 22.4 ± 0.8%
Percentage cytotoxicity (L132 (Lung); L132, 1 nM): 30.5 ± 4.1%
Percentage cytotoxicity (L132 (Lung); L132, 10 nM): 27.2 ± 3.1%
Percentage cytotoxicity (L132 (Lung); L132, 100 nM): 25.9 ± 2.6%
Percentage cytotoxicity (L132 (Lung); L132, 1 μM): 18.3 ± 2.9%

CC(C)C[C@H](NC(=O)[C@H](Cc1c[nH]cn1)NC(=O)C1(NC(=O)[C@@H](NC(=O)[C@H](C)NC(=O)[C@H](Cc2c[nH]c3ccccc23)NC(=O)[C@H](CCC(N)=O)NC(=O)[C@H](N)Cc2ccccc2)C(C)C)CCCC1)C(N)=O [SEQ ID: 10, D-Phe-Gln-Trp-Ala-Val-Ac5c-His-Leu-NH2] (H-[dF]QWAV[Ac5c]HL-NH2; N-terminus assumed)
Percentage cytotoxicity (PTC (colon); 10 pM): 22.2 ± 4.9%
Percentage cytotoxicity (PTC (colon); 100 pM): 21.6 ± 3.1%
Percentage cytotoxicity (PTC (colon); 1 nM): 29.4 ± 2.9%
Percentage cytotoxicity (PTC (colon); 10 nM): 32.5 ± 5.1%
Percentage cytotoxicity (PTC (colon); 100 nM): 29.3 ± 3.2%
Percentage cytotoxicity (PTC (colon); 1 μM): 28.4 ± 3.6%
Percentage cytotoxicity (HBL 100 (Breast); HBL100, 10 pM): 21.1 ± 0.7%
Percentage cytotoxicity (HBL 100 (Breast); HBL100, 100 pM): 16.6 ± 0.1%
Percentage cytotoxicity (HBL 100 (Breast); HBL100, 1 nM): 23.3 ± 1.6%
Percentage cytotoxicity (HBL 100 (Breast); HBL100, 10 nM): 32.9 ± 0.7%
Percentage cytotoxicity (HBL 100 (Breast); HBL100, 100 nM): 21.2 ± 1.7%
Percentage cytotoxicity (HBL 100 (Breast); HBL100, 1 μM): 18.5 ± 1.7%
Percentage cytotoxicity (SW620 (colon); SW620, 10 pM): 16.7 ± 0.2%
Percentage cytotoxicity (SW620 (colon); SW620, 100 pM): 20.9 ± 0.6%
Percentage cytotoxicity (SW620 (colon); SW620, 1 nM): 22.4 ± 1.7%
Percentage cytotoxicity (SW620 (colon); SW620, 10 nM): 25.5 ± 2.8%
Percentage cytotoxicity (SW620 (colon); SW620, 100 nM): 19.4 ± 1.8%
Percentage cytotoxicity (SW620 (colon); SW620, 1 μM): 22.2 ± 2.1%
Percentage cytotoxicity (HuTu80 (Stomach); HuTu80, 10 pM): 13.5 ± 0.8%
Percentage cytotoxicity (HuTu80 (Stomach); HuTu80, 100 pM): 22.9 ± 0.2%
Percentage cytotoxicity (HuTu80 (Stomach); HuTu80, 1 nM): 23.3 ± 2.8%
Percentage cytotoxicity (HuTu80 (Stomach); HuTu80, 10 nM): 20.6 ± 1.7%
Percentage cytotoxicity (HuTu80 (Stomach); HuTu80, 100 nM): 21.0 ± 2.0%
Percentage cytotoxicity (HuTu80 (Stomach); HuTu80, 1 μM): 17.2 ± 1.1%
Percentage cytotoxicity (KB (oral squamous); 10 pM): 19.2 ± 2.9%
Percentage cytotoxicity (KB (oral squamous); 100 pM): 25.0 ± 6.3%
Percentage cytotoxicity (KB (oral squamous); 1 nM): 31.1 ± 4.1%
Percentage cytotoxicity (KB (oral squamous); 10 nM): 27.3 ± 2.7%
Percentage cytotoxicity (KB (oral squamous); 100 nM): 22.0 ± 1.1%
Percentage cytotoxicity (KB (oral squamous); 1 μM): 16.5 ± 0.2%
Percentage cytotoxicity (U87MG (Glioblastoma); 10 pM): 11.6 ± 1.7%
Percentage cytotoxicity (U87MG (Glioblastoma); 100 pM): 16.5 ± 0.5%
Percentage cytotoxicity (U87MG (Glioblastoma); 1 nM): 25.6 ± 2.1%
Percentage cytotoxicity (U87MG (Glioblastoma); 10 nM): 20.0 ± 0.0%
Percentage cytotoxicity (U87MG (Glioblastoma); 100 nM): 15.0 ± 0.5%
Percentage cytotoxicity (U87MG (Glioblastoma); 1 μM): 10.0 ± 0.0%
Percentage cytotoxicity (HeP2 (laryngeal); HeP2, 10 pM): 1.7 ± 0.1%
Percentage cytotoxicity (HeP2 (laryngeal); HeP2, 100 pM): 19.1 ± 0.6%
Percentage cytotoxicity (HeP2 (laryngeal); HeP2, 1 nM): 27.2 ± 2.6%
Percentage cytotoxicity (HeP2 (laryngeal); HeP2, 10 nM): 27.5 ± 2.8%
Percentage cytotoxicity (HeP2 (laryngeal); HeP2, 100 nM): 26.3 ± 1.7%
Percentage cytotoxicity (HeP2 (laryngeal); HeP2, 1 μM): 19.9 ± 1.5%
Percentage cytotoxicity (L132 (Lung); L132, 10 pM): 1.9 ± 0.2%
Percentage cytotoxicity (L132 (Lung); L132, 100 pM): 29.4 ± 1.9%
Percentage cytotoxicity (L132 (Lung); L132, 1 nM): 29.5 ± 2.8%
Percentage cytotoxicity (L132 (Lung); L132, 10 nM): 27.5 ± 2.8%
Percentage cytotoxicity (L132 (Lung); L132, 100 nM): 27.8 ± 2.1%
Percentage cytotoxicity (L132 (Lung); L132, 1 μM): 22.4 ± 1.8%

— patent US6989371B1, “Bombesin analogs for treatment of cancer” (Dabur Research Foundation, priority 1996, dated 2006)
